How the values were obtained:
[1] = biological target: KIT kinase (Homo sapiens (Human), UniProt P10721); test: Competition binding assay (Kd), KIT; conditions: competition binding assay
Outline: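 Kd derived from eleven-point threefold serial dilutions of compound competing with bead-bound ligand for kinase; bound kinase eluted and measured by quantitative PCR. Kinase supplied either as a T7 phage fusion or expressed in HEK-293 cells with a DNA tag; DMSO served as control.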

[2] = biological target: FLT3 kinase (Homo sapiens (Human), UniProt P36888); test: Competition binding assay (Kd), FLT3; conditions: competition binding assay
FLT3 kinase, sequence (P36888 27-993): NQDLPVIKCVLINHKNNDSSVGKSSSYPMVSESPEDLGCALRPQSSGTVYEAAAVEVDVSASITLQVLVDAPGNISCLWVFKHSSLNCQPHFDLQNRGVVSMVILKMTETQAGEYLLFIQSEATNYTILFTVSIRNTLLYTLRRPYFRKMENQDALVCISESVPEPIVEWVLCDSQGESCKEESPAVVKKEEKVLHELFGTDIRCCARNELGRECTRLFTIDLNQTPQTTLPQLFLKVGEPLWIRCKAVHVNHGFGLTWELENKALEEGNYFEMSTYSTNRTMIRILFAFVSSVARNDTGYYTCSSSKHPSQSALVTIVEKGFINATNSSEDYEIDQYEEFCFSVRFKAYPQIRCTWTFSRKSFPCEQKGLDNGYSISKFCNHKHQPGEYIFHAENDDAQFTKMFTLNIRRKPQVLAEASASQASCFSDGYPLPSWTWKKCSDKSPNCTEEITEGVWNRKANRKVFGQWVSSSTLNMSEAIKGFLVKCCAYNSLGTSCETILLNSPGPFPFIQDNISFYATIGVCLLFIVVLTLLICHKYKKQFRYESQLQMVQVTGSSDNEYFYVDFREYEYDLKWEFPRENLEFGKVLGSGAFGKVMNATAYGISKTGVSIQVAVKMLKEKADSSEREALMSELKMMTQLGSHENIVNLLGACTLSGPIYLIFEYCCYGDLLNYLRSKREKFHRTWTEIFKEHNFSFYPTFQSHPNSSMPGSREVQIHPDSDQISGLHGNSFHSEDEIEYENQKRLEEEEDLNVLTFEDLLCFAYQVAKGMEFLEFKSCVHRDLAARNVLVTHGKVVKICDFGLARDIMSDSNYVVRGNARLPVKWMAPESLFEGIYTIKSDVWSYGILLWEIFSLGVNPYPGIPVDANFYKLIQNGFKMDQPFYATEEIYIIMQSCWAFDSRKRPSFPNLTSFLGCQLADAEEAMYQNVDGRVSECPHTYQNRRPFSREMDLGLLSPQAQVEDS

[3] = biological target: FLT3-ITD (Homo sapiens (Human), UniProt P36888, INS600HVDFREYEYD); test: pFLT3 MSD assay, Ba/F3 FLT3-ITD; assay type: cell-based; conditions: Ba/F3 FLT3-ITD cells, 2 hours, read-out: BaF3-FLT3-ITD pFlt3 IC50
FLT3-ITD, sequence (P36888 other isoform, or with tags, fused parts or gaps limits assumed, stated change not applied): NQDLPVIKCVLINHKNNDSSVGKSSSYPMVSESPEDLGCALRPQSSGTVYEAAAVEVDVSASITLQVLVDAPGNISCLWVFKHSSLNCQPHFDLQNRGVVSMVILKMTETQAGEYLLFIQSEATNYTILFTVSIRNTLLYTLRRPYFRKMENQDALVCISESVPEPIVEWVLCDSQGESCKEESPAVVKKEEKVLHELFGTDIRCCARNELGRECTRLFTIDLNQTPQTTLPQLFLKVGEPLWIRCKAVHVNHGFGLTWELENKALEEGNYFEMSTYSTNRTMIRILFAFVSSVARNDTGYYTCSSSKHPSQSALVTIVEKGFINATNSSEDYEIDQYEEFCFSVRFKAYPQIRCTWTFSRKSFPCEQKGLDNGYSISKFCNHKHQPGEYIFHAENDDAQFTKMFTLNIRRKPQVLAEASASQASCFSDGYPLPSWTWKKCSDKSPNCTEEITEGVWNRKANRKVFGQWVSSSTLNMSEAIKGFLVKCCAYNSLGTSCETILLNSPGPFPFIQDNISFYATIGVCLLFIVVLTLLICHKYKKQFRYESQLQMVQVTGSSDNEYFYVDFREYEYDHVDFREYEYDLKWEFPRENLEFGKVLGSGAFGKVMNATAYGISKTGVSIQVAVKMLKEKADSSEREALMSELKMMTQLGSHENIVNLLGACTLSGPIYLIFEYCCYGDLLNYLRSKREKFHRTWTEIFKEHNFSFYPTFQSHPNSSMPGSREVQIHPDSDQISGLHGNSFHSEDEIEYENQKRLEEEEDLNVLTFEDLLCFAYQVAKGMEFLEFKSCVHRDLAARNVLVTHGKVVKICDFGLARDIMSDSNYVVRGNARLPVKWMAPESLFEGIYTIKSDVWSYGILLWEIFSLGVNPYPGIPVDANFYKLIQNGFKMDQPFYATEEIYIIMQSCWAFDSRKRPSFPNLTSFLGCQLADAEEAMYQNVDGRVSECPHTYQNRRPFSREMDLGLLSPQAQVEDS
Description: In certain other embodiments, the compounds disclosed herein are tested in a FLT3 phosphorylation assay to determine their cellular potency against one or both of FLT3-ITD and FLT3 tyrosine kinase domain mutants. In certain embodiments, the FLT3 phosphorylation assay assesses the potency of compounds as FLT3 inhibitors by measuring the reduction in formation of phosphorylated FLT3 in the cells.
Gene constructs containing the human FLT3 sequences FLT3-ITD, FLT3-ITD-F691L, FLT3-ITD-D835V and FLT3-D835V were synthesized by reverse translation of the human protein sequences, with codons optimized for mammalian expression. Sequence of the internal tandem duplication (ITD) was based on the MV4-11 ITD sequence. […] Viruses were transduced into the IL-3-dependent, murine macrophage cell line, Ba/F3, and selected for puromycin resistance and IL-3 independence. All cell lines were cloned by limiting dilution and clones were used for all subsequent cell assays.
Briefly, cell lines were serum starved overnight in media containing 0.5% FBS. Cells were plated at 200,000 cells/well in 96-well round bottom plates in low serum, and 3-fold serial dilutions of test compounds were added for 2 hours at 37° C. […] After an overnight incubation at 4° C. shaking at 450 rpm, plates were washed with MSD wash buffer, and captured FLT3 was detected with biotinylated-anti-phosphotyrosine antibody 4G10 (Millipore) and SulfoTAG-streptavidin (MSD) for 1 hour at room temperature, and read on an MSD SECTOR Imager 6000. Percent remaining phospho-FLT3 in compound-treated cells was normalized to DMSO-treated cells, and IC50s were determined using Igor Pro software. All compounds are assayed in duplicate cell and MSD plates.

KIT kinase, sequence (P10721 26-976): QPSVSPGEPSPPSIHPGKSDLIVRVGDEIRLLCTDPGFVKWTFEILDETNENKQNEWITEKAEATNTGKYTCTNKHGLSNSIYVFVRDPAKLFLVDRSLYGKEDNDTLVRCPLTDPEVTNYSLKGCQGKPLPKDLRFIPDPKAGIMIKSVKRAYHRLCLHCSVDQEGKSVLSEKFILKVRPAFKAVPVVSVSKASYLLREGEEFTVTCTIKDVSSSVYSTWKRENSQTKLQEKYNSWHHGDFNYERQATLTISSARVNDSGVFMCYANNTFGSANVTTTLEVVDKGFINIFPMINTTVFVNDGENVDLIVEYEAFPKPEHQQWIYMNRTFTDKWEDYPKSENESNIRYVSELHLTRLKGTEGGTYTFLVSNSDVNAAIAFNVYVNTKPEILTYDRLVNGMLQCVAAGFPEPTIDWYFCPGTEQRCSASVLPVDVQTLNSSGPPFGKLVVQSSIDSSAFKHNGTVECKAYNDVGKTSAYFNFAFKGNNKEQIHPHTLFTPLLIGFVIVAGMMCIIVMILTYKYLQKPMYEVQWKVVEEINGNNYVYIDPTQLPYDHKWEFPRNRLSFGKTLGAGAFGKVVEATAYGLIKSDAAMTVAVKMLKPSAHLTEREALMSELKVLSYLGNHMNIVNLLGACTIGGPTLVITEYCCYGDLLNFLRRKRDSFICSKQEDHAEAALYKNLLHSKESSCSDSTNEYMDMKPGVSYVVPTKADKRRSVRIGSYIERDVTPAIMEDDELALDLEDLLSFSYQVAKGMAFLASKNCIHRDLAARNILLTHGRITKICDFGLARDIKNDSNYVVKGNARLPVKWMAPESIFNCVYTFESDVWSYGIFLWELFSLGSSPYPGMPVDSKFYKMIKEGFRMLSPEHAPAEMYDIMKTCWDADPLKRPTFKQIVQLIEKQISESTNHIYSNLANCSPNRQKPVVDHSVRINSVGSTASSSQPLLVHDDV

Compound: O=C(Cc1ccc(-c2cnc3cc4c(cc3n2)O[C@H](CO)CO4)cc1F)Nc1cc(C2(C(F)(F)F)CC2)on1 [Example 122, 2-[2-fluoro-4-[(3R)-3-(hydroxymethyl)-2,3-dihydro-[1,4]dioxino[2,3-g]quinoxalin-7-yl]phenyl]-N-[5-[1-(trifluoro-methyl)cyclopropyl]isoxazol-3-yl]acetamide]
- Kd [1]: < 5 nM
- Kd [2]: < 5 nM
- IC50 [3]: < 10 nM

Compound: COc1cc2nc(N)c(-c3ccc(CC(=O)Nc4cc(C5(C(F)(F)F)CC5)on4)c(F)c3)nc2cc1OC [Example 123, 2-[4-(3-amino-6,7-dimethoxy-quinoxalin-2-yl)-2-fluoro-phenyl]-N-[5-[1-(trifluoro-methyl)cyclopropyl]isoxazol-3-yl]acetamide]
- Kd [1]: < 5 nM
- Kd [2]: < 5 nM
- IC50 [3]: < 10 nM

Compound: COc1cc2nc(OC)c(-c3ccc(CC(=O)Nc4cc(C5(C(F)(F)F)CC5)on4)c(F)c3)nc2cc1OC [Example 124, 2-[2-fluoro-4-(3,6,7-trimethoxyquinoxalin-2-yl)phenyl]-N-[5-[1-(trifluoro-methyl)cyclopropyl]isoxazol-3-yl]acetamide]
- Kd [1]: 5 to 20 nM
- Kd [2]: < 5 nM
- IC50 [3]: 10 to 20 nM

Compound: COCCOc1cc2ncc(-c3ccc(CC(=O)Nc4cc(C5(C(F)(F)F)CC5)on4)c(F)c3)nc2cc1OCCOC [Example 125, 2-[4-[6,7-bis(2-methoxyethoxy)quinoxalin-2-yl]-2-fluoro-phenyl]-N-[5-[1-(trifluoro-methyl)cyclopropyl]isoxazol-3-yl]acetamide]
- Kd [1]: < 5 nM
- Kd [2]: < 5 nM
- IC50 [3]: < 10 nM

Compound: COCCOc1cc2ncc(-c3ccc(CC(=O)Nc4cc(C5(C(F)(F)F)CC5)on4)c(F)c3)cc2cc1OC [Example 126, 2-[2-fluoro-4-[6-methoxy-7-(2-methoxyethoxy)-3-quinolyl]phenyl]-N-[5-[1-(trifluoromethyl)cyclo-propyl]isoxazol-3-yl]acetamide]
- Kd [1]: < 5 nM
- Kd [2]: < 5 nM
- IC50 [3]: < 10 nM

Compound: COc1cc2cc(-c3ccc(CC(=O)Nc4cc(C5(C(F)(F)F)CC5)on4)c(F)c3)cnc2cc1OCCOC(C)=O [Example 127, 2-[[3-[3-fluoro-4-[2-oxo-2-[[5-[1-(trifluoro-methyl)cyclopropyl]isoxazol-3-yl]amino]ethyl]phenyl]-6-methoxy-7-quinolyl]oxy]ethyl acetate]
- Kd [1]: < 5 nM
- Kd [2]: < 5 nM
- IC50 [3]: < 10 nM

Compound: COc1cc2cc(-c3ccc(CC(=O)Nc4cc(C5(C(F)(F)F)CC5)on4)c(F)c3)cnc2cc1OC [Example 128, 2-[4-(6,7-dimethoxy-3-quinolyl)-2-fluoro-phenyl]-N-[5-[1-(trifluoro-methyl)cyclopropyl]isoxazol-3-yl]acetamide]
- Kd [1]: < 5 nM
- Kd [2]: < 5 nM
- IC50 [3]: < 10 nM

Compound: COc1cc2cc(-c3ccc(CC(=O)Nc4cc(C(C)(C)C(F)(F)F)on4)c(F)c3)cnc2cc1OC [Example 129, 2-[4-(6,7-dimethoxy-3-quinolyl)-2-fluoro-phenyl]-N-[5-(2,2,2-trifluoro-1,1-dimethyl-ethyl)isoxazol-3-yl]acetamide]
- Kd [1]: < 5 nM
- Kd [2]: < 5 nM
- IC50 [3]: < 10 nM

Compound: COc1cc2nc(-c3ccc(CC(=O)Nc4cc(C5(C(F)(F)F)CC5)on4)c(F)c3)cnc2cc1OCCOC(C)=O [Example 130, 2-[2-[3-fluoro-4-[2-oxo-2-[[5-[1-(trifluoromethyl)cyclo-propyl]isoxazol-3-yl]amino]ethyl]phenyl]-7-methoxy-quinoxalin-6-yl]oxyethyl acetate]
- Kd [1]: < 5 nM
- Kd [2]: < 5 nM
- IC50 [3]: < 10 nM

Compound: COc1cc2nc(-c3ccc(CC(=O)Nc4cc(C5(C(F)(F)F)CC5)on4)c(F)c3)cnc2cc1OCCO [Example 131, 2-[2-fluoro-4-[6-(2-hydroxyethoxy)-7-methoxy-quinoxalin-2-yl]phenyl]-N-[5-[1-(trifluoromethyl)cyclo-propyl]isoxazol-3-yl]acetamide]
- Kd [1]: < 5 nM
- Kd [2]: < 5 nM
- IC50 [3]: < 10 nM

Reference: US9725465B2, “Biaryl acetamide compounds and methods of use thereof” (Ambit Biosciences Corporation, priority 2013, dated 2017)
